Laboratory results from article PMC7031773, “Molecular Mechanisms Responsible for Pharmacological Effects of Genipin on Mitochondrial Proteins” (Biophysical Journal, 2019).

Key:
Format in all cases: biochemical
[1] = molecular target: T1, mitochondrial uncoupling protein 1 (UCP1) (Mus musculus, UniProt P12242); assay: planar lipid bilayer conductance, competition of […] ATP with […] genipin
T1 construct: recombinant mouse UCP1 from E. coli inclusion bodies, reconstituted in lipid bilayers
T1 sequence (P12242 1-307): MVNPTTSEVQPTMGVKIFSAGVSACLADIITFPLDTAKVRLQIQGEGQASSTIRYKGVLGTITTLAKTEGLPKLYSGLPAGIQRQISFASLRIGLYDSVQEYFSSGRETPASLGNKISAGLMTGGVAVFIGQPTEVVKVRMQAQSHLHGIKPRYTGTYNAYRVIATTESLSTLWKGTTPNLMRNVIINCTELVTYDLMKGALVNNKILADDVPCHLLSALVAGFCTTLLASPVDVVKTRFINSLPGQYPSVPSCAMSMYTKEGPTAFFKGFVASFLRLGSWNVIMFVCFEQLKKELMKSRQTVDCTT
From the text: The first bar is the inhibition after the addition of ATP

[2] = molecular target: T1, mitochondrial uncoupling protein 1 (UCP1); assay: planar lipid bilayer conductance with reconstituted UCP1; LC-MS/MS of covalent adducts; arginine mutants; competition with ATP
[3] = molecular target: T2, mitochondrial complex III (CIII) (Bos taurus, UniProt P00157); assay: cytochrome c reduction by isolated complex III, […] genipin
T2 construct: gene MT-CYB; complex III isolated from bovine heart

[4] = molecular target: T3, mitochondrial uncoupling protein 2 (UCP2) (Mus musculus, UniProt P70406); assay: planar lipid bilayer conductance with reconstituted UCP2
T3 construct: recombinant mouse UCP2 from E. coli inclusion bodies, reconstituted in lipid bilayers
T3 sequence (P70406 1-309): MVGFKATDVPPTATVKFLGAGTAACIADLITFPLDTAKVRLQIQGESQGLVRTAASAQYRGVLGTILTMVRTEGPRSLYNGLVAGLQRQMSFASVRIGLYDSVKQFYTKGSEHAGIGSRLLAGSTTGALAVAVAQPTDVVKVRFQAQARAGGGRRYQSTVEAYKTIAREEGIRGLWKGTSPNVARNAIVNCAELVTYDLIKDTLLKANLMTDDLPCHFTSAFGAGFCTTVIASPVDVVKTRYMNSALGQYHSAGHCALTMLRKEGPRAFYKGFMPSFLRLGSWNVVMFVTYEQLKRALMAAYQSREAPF

[5] = molecular target: T4, mitochondrial uncoupling protein 3 (UCP3) (Mus musculus, UniProt P56501); assay: planar lipid bilayer conductance with reconstituted UCP3
T4 construct: recombinant mouse UCP3 from E. coli inclusion bodies, reconstituted in lipid bilayers
T4 sequence (P56501 1-308): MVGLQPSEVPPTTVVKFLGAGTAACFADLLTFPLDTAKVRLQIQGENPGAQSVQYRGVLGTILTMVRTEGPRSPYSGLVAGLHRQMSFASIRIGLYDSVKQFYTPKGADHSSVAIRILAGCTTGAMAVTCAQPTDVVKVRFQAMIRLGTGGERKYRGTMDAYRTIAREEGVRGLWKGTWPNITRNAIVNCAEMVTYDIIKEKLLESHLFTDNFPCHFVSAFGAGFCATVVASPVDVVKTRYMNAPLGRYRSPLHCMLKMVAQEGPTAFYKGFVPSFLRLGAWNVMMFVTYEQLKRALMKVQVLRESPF

[6] = molecular target: T1, mitochondrial uncoupling protein 1 (UCP1); assay: planar lipid bilayer conductance with reconstituted UCP1

Nc1ncnc2c1ncn2[C@@H]1O[C@H](COP(=O)(O)OP(=O)(O)OP(=O)(O)O)[C@@H](O)[C@H]1O [ATP]
planar lipid bilayer conductance, competition of 3 mM ATP with 50 μM genipin [1]: Competitive inhibition of UCP1 with genipin (GNP) and ATP. The first bar is the inhibition after the addition of ATP

COC(=O)C1=CO[C@@H](O)[C@@H]2C(CO)=CC[C@H]12 [GNP, genipin]
IC50 [2]: 133 ± 12 µM
activity at 50 µM [3]: 63 ± 7%
IC50 [4]: 94 ± 24 µM
IC50 [5]: 41 ± 12 µM

COC(=O)C1=CO[C@@H](O[C@@H]2O[C@H](CO)[C@@H](O)[C@H](O)[C@H]2O)[C@@H]2C(CO)=CC[C@H]12 [geniposide]
EC50 [6]: 693 ± 90 µM
